Test results as given in patent publication US8742141B2, “Inhibition and treatment of prostate cancer metastasis” (Northwestern University, priority 2008, dated 2014).
“Also recorded” adds a separate entry of the source.

Experiments:
PC3-M or PC3 cells = assay: Cell invasion assay, compounds of Example 7; type: cell-based, human; conditions: 10 μM of compound
Method: (§1) Assays were conducted using methods as described in Craft et al. (2008, Mol. Pharmocol., 73(1):235-242; herein incorporated by reference in its entirety).
(§2) The anti-metastatic activity of the compounds of Example 7 was tested using the procedure of Example 2. Specifically, PC3-M or PC3 cells were treated with 10 μM of compound (for invasion, FIG. 9) or a range of concentrations (for growth inhibition, FIG. 10). For invasion, values are the mean±SD number of invading cells, as a percent of untreated controls, from N=3 separate assays run at different times (each assay was in replicates of N=4). Cell viability was determined by MTT assay as recited in Kyle et al., Mol. Pharmacol, 51(2):193-200 (1997); herein incorporated in its entirety. Values are the mean±SD of N=2 separate assays run at different times (N=3 for each assay), and are the percent of untreated controls.

[1] = system: PC3-M human prostate cancer cells; assay: 3-day growth inhibition MTT assay; type: cell-based; conditions: range of concentrations
Method: PC3-M human prostate cancer cells were treated with different concentrations of the indicated compound, and then MTT reduction as an indicator of cell viability was measured according to the method of Example 9.
The anti-metastatic activity of compounds 21-26 was tested using the procedure of Example 2. Specifically, PC3-M cells were treated with 10 μM of compound (for invasion, FIG. 11) or a range of concentrations (for growth inhibition, FIG. 12). For invasion, values are the mean±SD number of invading cells, as a percent of untreated controls, from N=3 separate assays run at different times (each assay was in replicates of N=4). Cell viability was determined by MTT assay as recited in Kyle et al., Mol. Pharmacol, 51(2):193-200 (1997); herein incorporated by reference in its entirety. […]
The anti-metastatic activity of compounds 31-38 was tested using the procedure of Example 2. […] Cell viability was determined by MTT assay as recited in Kyle et al., Mol. Pharmacol, 51(2):193-200 (1997); herein incorporated by reference in its entirety. […]
The anti-metastatic activity of compounds 41-48 was tested using the procedure of Example 2. […] Cell viability was determined by MTT assay as recited in Kyle et al., Mol. Pharmacol, 51(2):193-200 (1997); herein incorporated by reference in its entirety. […]

PC3-M cells = assay: Cell invasion assay, compounds 21-48; type: cell-based, human; conditions: 10 μM of compound
Method: as §1
as §2, with “of” for “of the”, “21-26” for “of Example 7”, “PC3-M” for “PC3-M or PC3”, “11)” for “9)”, “12).” for “10).”, “incorporated by reference” for “incorporated”
as §2, with “of” for “of the”, “31-38” for “of Example 7”, “PC3-M” for “PC3-M or PC3”, “13)” for “9)”, “14).” for “10).”, “incorporated by reference” for “incorporated”
as §2, with “of” for “of the”, “41-48” for “of Example 7”, “PC3-M” for “PC3-M or PC3”, “15)” for “9)”, “16).” for “10).”, “incorporated by reference” for “incorporated”

[2] = Stability after radiation and autoclaving; type: physicochemical
Method: Successful scale-up of synthesis of compound 46 was conducted according to the methods of Examples 7, 11, and the Detailed Description, yielding 10 g of material that is >98% pure (by HPLC).

[3] = system: ER promoter-luciferase reporter vector construct; assay: ER promoter-luciferase reporter assay in MCF-7 cells; type: cell-based, human; conditions: 10 μM
Method: (§3) The genes were: TFF1 (trefoil factor 1; also known as pS2), PGR (progesterone receptor), and CPSD (cathepsin D). Gene expression was measured by isolating RNA, and performing real time quantitative reverse transcription/polymerase chain reaction (qRT/PCR), using exon spanning primers (purchased from Applied Biosystems). The expression of GAPDH was also measured, and used to normalize the expression of ER responsive genes. Data below are the mean±SD of a single experiment, performed in duplicate. […] Additionally, the ability of compound 46 to activate an ER promoter-luciferase reporter vector construct after transient transfection of the human ER positive breast cancer cell line, MCF-7, was evaluated (FIG. 31). […] “No associated control cells” were transfected with an identical vector construct that lacked the estrogen response element, i.e., noERE.

[4] = system: Estrogen receptor (ER) positive human MCF-7 breast cancer cells; assay: Expression of estrogen responsive genes (TFF1, PGR, CPSD) in MCF-7 cells; type: cell-based; conditions: 0.1-50 μM, 24 hours, hormone-free conditions
Method: as §3

[5] = Short-term animal toxicity study, oral gavage; type: in vivo; conditions: 0.15, 1.5, 15, or 150 mg/kg body weight/day, 5 days
Method: Six week old athymic male mice were dosed by oral gavage with 0.15, 1.5, 15, or 150 mg KBU2046/kg body weight/day, or vehicle control, daily for 5 days. There were 3 mice per dose level.

[6] = system: PC3-M, PC3, 1542CPTX, 1532CPTX, 1532NPTX, and 1542NPTX cells; assay: Cell invasion assay, invasion time extended to 16 hours; type: cell-based, human; conditions: invasion assay time 16 hours
Method: as §1
Expanded studies were performed on compound 46. Cell invasion assays conducted using the procedure of Example 2 utilized control, genistein-treated, and compound 46-treated PC3-M, PC3, 1542CPTX, 1532CPTX, 1532NPTX, and 1542NPTX cells (FIG. 17, FIG. 28). This allowed assay conditions to be adjusted so as to optimize assessment of differences between these three treatment conditions. In particular, the invasion assay time was extended from 14 to 16 hours.

[7] = system: PC3, PC3-M, 1532CPTX, 1542CPTX, 1532NPTX, and 1542NPTX; assay: Growth inhibition MTT assay in different cell lines; type: cell-based, human; conditions: range of concentrations
Method: Growth inhibition assays were performed with different cell lines using the procedure of Example 2. Specifically, cell lines (PC3, PC3-M, 1532CPTX, 1542CPTX, 1532NPTX, and 1542NPTX) were treated with a range of concentrations of compound 46 (FIG. 18, FIG. 29). Cell viability was determined by MTT assay as recited in Kyle et al., Mol. Pharmacol, 51(2):193-200 (1997); herein incorporated by reference in its entirety. Data are the mean±SEM of a single experiment, performed in triplicate.

Question: For `O=c1c(-c2ccccc2)coc2ccccc12` [Compound 1], which “inhibition of cell invasion (anti-metastatic activity)” value (“inhibition of cell invasion” for short) (PC3-M or PC3 cells) is on record?
Answer: did not show any significant inhibition of cell invasion

Question: Which “inhibition of cell invasion” value (PC3-M or PC3 cells) does the source give for `O=c1c(-c2ccc(O)cc2)coc2cc(O)cc(O)c12` [Compound 8] here?
Answer: did not show any significant inhibition of cell invasion

Question: For `O=c1oc2cc(O)cc(O)c2cc1-c1ccc(O)cc1` [Compound 17], which “inhibition of cell invasion” value (PC3-M or PC3 cells) is on record?
Answer: did not show any significant inhibition of cell invasion

Question: Which “cell growth inhibition (MTT)” value [1] does the source give for `O=C1c2c(O)cc(O)cc2OCC1c1ccc(O)cc1` (centres unmarked) [Compound 22, 5,7,4′-trihydroxyisoflavanone] here?
Answer: little-to-no effect upon cell growth inhibition

Question: What about the anti-invasion efficacy (PC3-M cells) of the same compound?
Answer: retain anti-invasion efficacy

Question: For `COc1ccc(-c2cc3c(OC)cc(OC)cc3oc2=O)cc1` [Compound 23], which anti-invasion efficacy (PC3-M cells) is on record?
Answer: loss of activity

Question: Which anti-invasion efficacy (PC3-M cells) does the source give for `CC(=O)Oc1ccc(-c2cc3c(OC(C)=O)cc(OC(C)=O)cc3oc2=O)cc1` [Compound 24] here?
Answer: loss of activity

Question: With `O=c1oc2cc(O)cc(O)c2cc1-c1ccc(O)cc1` [Compound 25] as the compound, how does the anti-invasion efficacy (PC3-M cells) read?
Answer: loss of activity

Question: Which “cell growth inhibition (MTT)” value [1] does the source give for `O=c1c(-c2cccc(Cl)c2)coc2ccccc12` [Compound 38, 3′-chloroisoflavone] here?
Answer: growth inhibitory effects

Question: And the anti-invasion efficacy (PC3-M cells)?
Answer: anti-invasive

Question: Which results are given for `O=C1c2ccccc2OCC1c1ccc(F)cc1` (centres unmarked) [Compound 46, 4′-fluoroisoflavanone]?
Answer: compound stability ([2]; after exposure to 40 kGy of radiation): stability was documented; compound stability ([2]; after exposure to high temperatures and pressures (autoclaving)): stability was documented; luciferase activity [3]: no effect; estrogenic activity (expression of estrogen responsive genes) [4]: no estrogenic activity; toxicity [5]: no evidence of toxicity; anti-invasion efficacy compared to genistein [6]: greater efficacy than genistein; also recorded: greater anti-invasion efficacy compared to genistein; toxicity in growth inhibition assay (MTT cell viability) [7]: less toxic than genistein, and in fact shows no toxicity; also recorded: no cell toxicity
